The results in this text go back to patent US10294229B2, “Heteroaryl substituted aminopyridine compounds” (BRISTOL-MYERS SQUIBB COMPANY, priority 2015, dated 2019).

One data set deals with IRAK4 (Homo sapiens (Human), UniProt Q9NWZ3). Nature of the data set: IRAK4 Inhibition Assay. Particulars: ATP 500 μM; IRAK4 0.6 nM. It counts as biochemical. A digest of the protocol:
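Readout: electrophoretic (LabChip) separation of fluorescent peptide substrate from phosphorylated product after EDTA quench. Reactions ran 60 min at room temperature with 0.6 nM IRAK4, 1.5 μM peptide and 500 μM ATP; inhibition referenced to no-enzyme (100%) and vehicle (0%) controls.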

Data set [1] relates to Human whole blood stimulated with a TLR2 agonist (lipoteichoic acid), IL-6 levels. Nature of the data set: IRAK4 Whole Blood Assay. Conditions: lipoteichoic acid 10 μg/mL. Format: cell-based. A digest of the protocol:
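IL-6 was quantified by cytometric bead assay in supernatants of human blood (ACD-A) stimulated for 5 h with lipoteichoic acid at 10 μg/mL final. Compound exposure preceded stimulation for 60 min at 37 °C, 5% CO2.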

The test system of the next data set is Caco-2 cells. The data set can be described thus: Caco-2 Permeability Assay. It counts as in vitro ADME. Particulars: test compound 3 μM. In short, it runs like this:
(§1)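 Bidirectional permeability measured over 2 h at 37° C, compound dosed at 3 μM in the donor compartment (apical for absorptive, basolateral for secretive) with plain buffer as receiver.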
(In general: Caco-2 cells form a polarised layer with tight junctions and transporters.)

Data set [2] is described as follows: Caco-2 Permeability Assay. It counts as in vitro ADME. Particulars: human, Caco-2, test compound 3 μM. A digest of the protocol:
as §1

IRAK4, sequence (Q9NWZ3 whole entry, species assumed): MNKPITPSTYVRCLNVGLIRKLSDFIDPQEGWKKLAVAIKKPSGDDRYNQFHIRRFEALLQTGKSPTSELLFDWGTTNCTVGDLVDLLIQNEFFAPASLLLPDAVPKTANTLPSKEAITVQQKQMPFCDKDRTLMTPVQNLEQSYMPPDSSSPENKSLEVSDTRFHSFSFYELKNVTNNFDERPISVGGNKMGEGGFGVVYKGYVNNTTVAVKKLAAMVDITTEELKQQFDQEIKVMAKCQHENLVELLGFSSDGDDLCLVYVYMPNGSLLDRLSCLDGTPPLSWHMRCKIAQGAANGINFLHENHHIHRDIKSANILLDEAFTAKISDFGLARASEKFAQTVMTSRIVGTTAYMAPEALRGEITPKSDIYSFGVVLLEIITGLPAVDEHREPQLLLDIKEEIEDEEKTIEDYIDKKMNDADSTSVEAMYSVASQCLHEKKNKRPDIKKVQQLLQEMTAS

A word on the IC50: it is the concentration that inhibits the measured activity by half. One may read the EC50 as the concentration that produces a half-maximal response. A higher EC50 goes with a need for much substance. For `CC(C)Nc1cc(-n2ncc3cc(C#N)cnc32)ncc1-c1cn(CC2CC2(F)F)nn1` (single isomer, unassigned) [Example 32, 1-(5-(1-((2,2-difluorocyclopropyl)methyl)-1H-1,2,3-triazol-4-yl)-4-(isopropylamino)pyridin-2-yl)-1H-pyrazolo[3,4-b]pyridine-5-carbonitrile], the IC50 on IRAK4 is 5 nM. This molecule returned an EC50 in data set [1] of 370 nM. The “Caco-2 Permeability” value in the data set with Caco-2 cells came out at 162 nm/s.
For `CCC(C)(O)Cn1cc(-c2cnc(-n3ncc4cc(C#N)cnc43)cc2NC(C)C)nn1` (single isomer, unassigned) [Example 93, 1-(5-(1-(2-hydroxy-2-methylbutyl)-1H-1,2,3-triazol-4-yl)-4-(isopropylamino)pyridin-2-yl)-1H-pyrazolo[3,4-b]pyridine-5-carbonitrile], in that order: 10 nM, 280 nM and 115 nm/s.
Turning to `CC(C)Nc1cc(-n2ncc3cc(C#N)cnc32)ncc1-c1cn([C@@H]2CCN(S(C)(=O)=O)C[C@H]2F)nn1` (single isomer, unassigned) [Example 211, 1-(5-(1-((trans)-3-fluoro-1-(methylsulfonyl)piperidin-4-yl)-1H-1,2,3-triazol-4-yl)-4-(isopropylamino)pyridin-2-yl)-1H-pyrazolo[3,4-b]pyridine-5-carbonitrile], the IC50 at IRAK4 came out at 2 nM. This molecule also displayed a concentration giving a half-maximal response (EC50) in data set [1] of 290 nM. Further, the “Caco-2 Permeability” value with Caco-2 cells stood at 32 nm/s.
In the case of `CC(C)Nc1cc(-n2ncc3cc(C#N)cnc32)ncc1-c1cc(C2COCCN2)no1` (single isomer, unassigned) [Example 400, Isomer 1, 1-(4-(isopropylamino)-5-(3-(morpholin-3-yl)isoxazol-5-yl)pyridin-2-yl)-1H-pyrazolo[3,4-b]pyridine-5-carbonitrile], the IC50 at IRAK4 worked out at 3 nM. In addition, the EC50 in data set [1] (Homo sapiens) was 230 nM. In addition, in the data set with Caco-2 cells (listed as 400, Isomer 1), the “Caco-2 Permeability” value turned out to be 224 nm/s.
`CC(C)Nc1cc(-n2ncc3cc(C#N)cnc32)ncc1-c1cc(C2COCCN2)no1` (single isomer, unassigned) [Example 400, Isomer 2, 1-(4-(isopropylamino)-5-(3-(morpholin-3-yl)isoxazol-5-yl)pyridin-2-yl)-1H-pyrazolo[3,4-b]pyridine-5-carbonitrile]: the IC50 at IRAK4 came out at 6 nM. The same molecule gave an EC50 in data set [1] (listed as 400, Isomer 2) of 270 nM. For the same molecule, in the data set with Caco-2 cells (listed as 400, Isomer 2), the “Caco-2 Permeability” value was determined as 530 nm/s.
As a reminder, the Papp is the rate of passage across a membrane or cell layer, normalised by area and donor concentration. High values mean fast passage, low ones slow passage. As for `CC(=O)N(C)CCCc1cc(-c2cnc(-n3ncc4cc(C#N)cnc43)cc2NC(C)C)on1` [Example 415, N-(3-(5-(6-(5-cyano-1H-pyrazolo[3,4-b]pyridin-1-yl)-4-(isopropylamino)pyridin-3-yl)isoxazol-3-yl)propyl)-N-methylacetamide], the IC50 at IRAK4 stood at 3 nM. Also, the EC50 in data set [1] (Homo sapiens) is 260 nM. The Papp at 2 h, 3 µM in data set [2] came out at 18.3 ×10⁻⁶ cm/s.
With `CC(=O)N1CCC[C@@H]1c1cc(-c2cnc(-n3ncc4cc(C#N)cnc43)cc2NC(C)C)on1` [Example 417, (R)-1-(5-(3-(1-acetylpyrrolidin-2-yl)isoxazol-5-yl)-4-(isopropylamino)pyridin-2-yl)-1H-pyrazolo [3,4-b]pyridine-5-carbonitrile], at IRAK4, the half-inhibitory concentration (IC50) is 7 nM. Besides, the EC50 in data set [1] (Homo sapiens) came out at 340 nM. This molecule also yielded a Papp at 2 h, 3 µM in data set [2] of 29.2 ×10⁻⁶ cm/s.
For `CC(=O)N1C2CCC1CC(c1cc(-c3cnc(-n4ncc5cc(C#N)cnc54)cc3NC(C)C)on1)C2` (centres unmarked) [Example 419, 1-(5-(3-(8-acetyl-8-azabicyclo[3.2.1]octan-3-yl)isoxazol-5-yl)-4-(isopropylamino)pyridin-2-yl)-1H-pyrazolo[3,4-b]pyridine-5-carbonitrile], the half-inhibitory concentration (IC50) on IRAK4 came to 2 nM. Moreover, the EC50 in data set [1] (Homo sapiens) was found to be 430 nM. Further, the Papp at 2 h, 3 µM in data set [2] came to 19.9 ×10⁻⁶ cm/s.
For `CC(C)Nc1cc(-n2ncc3cc(C#N)cnc32)ncc1-c1cc([C@@H]2COC(C)(C)O2)no1` [Example 420, (R)-1-(5-(3-(2,2-dimethyl-1,3-dioxolan-4-yl)isoxazol-5-yl)-4-(isopropylamino)pyridin-2-yl)-1H-pyrazolo[3,4-b]pyridine-5-carbonitrile], in that order: 6 nM, 350 nM and 43.8 ×10⁻⁶ cm/s.
The like results for `CC(=O)N1CCC(F)(c2cc(-c3cnc(-n4ncc5cc(C#N)cnc54)cc3NC(C)C)on2)CC1` [Example 421, 1-(5-(3-(1-acetyl-4-fluoropiperidin-4-yl)isoxazol-5-yl)-4-(isopropylamino)pyridin-2-yl)-1H-pyrazolo[3,4-b]pyridine-5-carbonitrile] were, in that order, 3 nM, 200 nM and 32.2 ×10⁻⁶ cm/s.
The like results for `CC(C)Nc1cc(-n2ncc3cc(C#N)cnc32)ncc1-c1cc(C2CC(F)(F)CCN2)no1` (centres unmarked) [Example 422, 1-(5-(3-(4,4-difluoropiperidin-2-yl)isoxazol-5-yl)-4-(isopropylamino)pyridin-2-yl)-1H-pyrazolo [3,4-b]pyridine-5-carbonitrile] were, in that order, 3 nM, 480 nM and 31.7 ×10⁻⁶ cm/s.
In the case of `CC(C)Nc1cc(-n2ncc3cc(C#N)cnc32)ncc1-c1cc(C2COC(C)(C)CN2)no1` (centres unmarked) [Example 423, 1-(5-(3-(6,6-dimethylmorpholin-3-yl)isoxazol-5-yl)-4-(isopropylamino)pyridin-2-yl)-1H-pyrazolo[3,4-b]pyridine-5-carbonitrile], the IC50 at IRAK4 is 2 nM. In data set [1] (Homo sapiens), the EC50 was 160 nM. The same molecule registered an apparent permeability (Papp) at 2 h, 3 µM in data set [2] of 39.4 ×10⁻⁶ cm/s.
For the molecule `CC(C)Nc1cc(-n2ncc3cc(C#N)cnc32)ncc1-c1cc([C@@H]2C[C@H](O)CCN2)no1` [Example 424, 1-(5-(3-((2S,4R)-4-hydroxypiperidin-2-yl)isoxazol-5-yl)-4-(isopropylamino)pyridin-2-yl)-1H-pyrazolo[3,4-b]pyridine-5-carbonitrile], the 50% inhibitory concentration (IC50) at IRAK4 was found to be 10 nM. This molecule showed a half-maximal effective concentration (EC50) in data set [1] (Homo sapiens) of 180 nM. For the same molecule, the apparent permeability (Papp) at 2 h, 3 µM in data set [2] is less than 1.5 ×10⁻⁶ cm/s.
In the case of `CC(C)Nc1cc(-n2ncc3cc(C#N)cnc32)ncc1-c1cc([C@H]2C[C@@H](O)CCN2)no1` [Example 425, 1-(5-(3-((2R,4S)-4-hydroxypiperidin-2-yl)isoxazol-5-yl)-4-(isopropylamino)pyridin-2-yl)-1H-pyrazolo[3,4-b]pyridine-5-carbonitrile], the IC50 at IRAK4 is 9 nM. Besides, the EC50 in data set [1] (Homo sapiens) amounted to 140 nM. In data set [2], the Papp at 2 h, 3 µM was less than 1.5 ×10⁻⁶ cm/s.
The like results for `CC(=O)N1CC[C@H]1c1cc(-c2cnc(-n3ncc4cc(C#N)cnc43)cc2NC(C)C)on1` [Example 427, (S)-1-(5-(3-(1-acetylazetidin-2-yl)isoxazol-5-yl)-4-(isopropylamino)pyridin-2-yl)-1H-pyrazolo[3,4-b]pyridine-5-carbonitrile] were, in that order, 15 nM, 250 nM and 8 ×10⁻⁶ cm/s.
As for `CC(C)Nc1cc(-n2ncc3cc(C#N)cnc32)ncc1-c1cc([C@@H]2COCCN2)on1` [Example 428, (S)-1-(4-(isopropylamino)-5-(5-(morpholin-3-yl)isoxazol-3-yl)pyridin-2-yl)-1H-pyrazolo[3,4-b]pyridine-5-carbonitrile], at IRAK4, the IC50 was 4 nM. The molecule further came in with a concentration giving a half-maximal response (EC50) in data set [1] (Homo sapiens) of 460 nM. Also, the Papp at 2 h, 3 µM in data set [2] came to 26.3 ×10⁻⁶ cm/s.
As for `CCN1CCOC[C@H]1c1cc(-c2cnc(-n3ncc4cc(C#N)cnc43)cc2NC(C)C)no1` [Example 431, (S)-1-(5-(5-(4-ethylmorpholin-3-yl)isoxazol-3-yl)-4-(isopropylamino)pyridin-2-yl)-1H-pyrazolo[3,4-b]pyridine-5-carbonitrile], at IRAK4, the half-maximal inhibitory concentration (IC50) came out at 2 nM. Besides, in data set [1] (Homo sapiens), the response was half-maximal at 440 nM (EC50). The molecule further yielded a Papp at 2 h, 3 µM in data set [2] of 21.8 ×10⁻⁶ cm/s.
The like results for `CC(C)Nc1cc(-n2ncc3cc(C#N)cnc32)ncc1-c1nnc(C(=O)N2CCOCC2)o1` [Example 433, 1-(4-(isopropylamino)-5-(5-(morpholine-4-carbonyl)-1,3,4-oxadiazol-2-yl)pyridin-2-yl)-1H-pyrazolo[3,4-b]pyridine-5-carbonitrile] were, in that order, 11 nM, 200 nM and 1.7 ×10⁻⁶ cm/s.
`CC(C)Nc1cc(-n2ncc3cc(C#N)cnc32)ncc1-c1cc(CC(C)(C)O)on1` [Example 439, 1-(5-(5-(2-hydroxy-2-methylpropyl)isoxazol-3-yl)-4-(isopropylamino)pyridin-2-yl)-1H-pyrazolo[3,4-b]pyridine-5-carbonitrile]: in data set [1], the midpoint of the response, the EC50, lay at 250 nM. Also, the “Caco-2 Permeability” value in the data set with Caco-2 cells is 310 nm/s.
As for `CCNc1cc(-n2ncc3cc(C#N)cnc32)ncc1C1=NOC(CCC(C)(C)O)C1` (centres unmarked) [Example 440, 1-(4-(ethylamino)-5-(5-(3-hydroxy-3-methylbutyl)-4,5-dihydroisoxazol-3-yl)pyridin-2-yl)-1H-pyrazolo[3,4-b]pyridine-5-carbonitrile], at IRAK4, the half-inhibitory concentration (IC50) is 4 nM. In data set [1] (Homo sapiens), this molecule had an EC50 of 280 nM. Moreover, the apparent permeability (Papp) at 2 h, 3 µM in data set [2] worked out at 31.6 ×10⁻⁶ cm/s.
As to `CC(C)(O)CCC1CC(c2cnc(-n3ncc4cc(C#N)cnc43)cc2NCC(F)F)=NO1` (centres unmarked) [Example 443, 1-(4-((2,2-difluoroethyl)amino)-5-(5-(3-hydroxy-3-methylbutyl)-4,5-dihydroisoxazol-3-yl)pyridin-2-yl)-1H-pyrazolo[3,4-b]pyridine-5-carbonitrile], the IC50 at IRAK4 amounted to 2 nM. For the same molecule, in data set [1], the response was half-maximal at 390 nM (EC50). The molecule also displayed a Papp at 2 h, 3 µM in data set [2] of 14.1 ×10⁻⁶ cm/s.
